Test results: patent publication US20260335468A1, “MOLECULAR RADIOAFTERGLOW PROBES FOR CANCER RADIODYNAMIC THERANOSTICS” (NANYANG TECHNOLOGICAL UNIVERSITY, priority 2023, published 2026)

Legend:
[1] = Cell viability of U87 cells with IDPASu (Cell Counting Kit-8); format: cell-based, human; conditions: human, u87 cells; 100 μM; read-out: cell viability without X-ray
Experimental: (§1) All the cells were purchased from the American Type Culture Collection, including CatB-negative cells (mouse embryonic fibroblasts 3T3 cells, RAW 264.7, 293-T and human monocytic THP-1 cells) and CatB-positive cells (human U87 glioblastoma cells, U87-luciferase cells, A549 lung epithelial cells and 4T1 and melanoma B16-F10). All the cells were cultured
(§2) in Dulbecco's modified Eagle medium (Gibco) or RPMI 1640 medium containing 10.0% foetal bovine serum (Gibco) and 0.1% ciprofloxacin in a humidified atmosphere containing 5.0% CO2 and 95.0% air at 37° C. To study the cell viability of IDPASu, U87 cells (1×10^4 per well) were seeded on 96-well plates and incubated for 24 h. IDPASu at different concentrations (0, 2.5, 5.0, 10.0, 25.0, 50.0 and 100.0 μM) were added to the U87 cell medium for 12 h incubation. After incubation, 96-well plates were covered with chicken breast tissues with different thicknesses (0, 5, 8 and 15 cm), followed by X-ray irradiation. The X-ray setup was optimized to ensure the cells in all the wells received similar dose of X-ray irradiation (2 Gy) before chicken breast tissue coverage (0 cm). After irradiation, the cells were further incubated for 12 h, followed by the colorimetric Cell Counting Kit-8 assay. Briefly, Cell Counting Kit-8 solution (10 l, Dojindo Molecular Technologies) was added into the cell medium (100 l) for 2 h incubation, and the absorbance of medium at 450 nm was recorded using a microplate reader (ReadMax 1900). The cells without IDPASu incubation and X-ray irradiation were set as control. The cell viability (%) was calculated by the absorbance of treated cells over that of the control cells. To test the cell viability of activatable MRAP, U87 and 3T3 cells (1×10^4 per well) were seeded on 96-well plates and incubated for 24 h. The inhibitor group was pre-treated with a CatB inhibitor (CA-074, 1 mM) for 10 h incubation. MRAP at different concentrations (0, 2.5, 5.0, 10.0, 25.0, 50.0 and 100.0 µM) were added to the U87 and 3T3 cell medium for 12 h incubation. […]

U87 cells = assay: as above; format: cell-based, human
Experimental: as §1, §2

[2] = X-ray-induced NIR afterglow properties (Table 3); conditions: X-ray 0.005 Gy
From the text: To enable radio afterglow for organic molecules, we proposed a radiodynamic approach based on organic luminophores (DPAs and IDPAs) that were able to harvest X-ray energy for an in situ cycloaddition reaction to form self-luminescent chemical defects (FIG. 4b). This is mechanistically different from inorganic nanophosphors wherein the host materials (for example, fluoride and aluminosilicate) absorb X-rays, lattice defects delay excitons, and rare-earth/transition metal ion dopants (for example, Nd^3+ and Eu^3+) emit light (Richard, C. & Viana, B., Light.: Sci. Appl. 2022, 11, 123). Because of the presence of heavy atoms (iodine), IDPAs had higher radiodynamic ^1O2 generation and stronger radio afterglow emission than the iodine-free counterpart (DPAs). The radio afterglow dynamic processes of IDPAs were inducible even at a tissue depth of 15 cm, which was impossible when using light.

[3] = ^1O2 generation at tissue depth (X-ray or light through chicken breast tissue); format: physicochemical
Experimental: To study ^1O2 generation, a mixture of DPAS or IDPAS (100 M) and TEMP (10 mM) in PBS (0.01 M, pH 7.4, 50% DMSO) was irradiated by X-rays at 2 Gy (100 mGy s^−1 for 20 s) or 5 mGy (250 μGy s^−1 for 20 s). The ESR signals of the mixture were recorded with a Bruker A300 instrument. The ESR signal of the free radical 2,2,6,6-tetramethyl-1-piperidinyloxyl (g=2.0060) was generated by the reaction of ^1O2 with TEMP. The ^1O2 quencher NaN3 (1 mM) was added to validate the afterglow mechanism of IDPASu. Additionally, other commercially available radio sensitizers (such as acridine orange, hematoporphyrin and verteporfin) were measured and compared. The procedure of block depths was similar to that of the tissue penetration depth study and the ^1O2 generation for different depth tissues was measured. The ESR signal changes of MRAP in the absence or presence of CatB were measured in a similar way. The ESR signals of 2,2,6,6-tetramethyl-1-piperidinyloxyl from the reaction of ^1O2 with TEMP were plotted as a function of the concentration of ^1O2, which was generated by the addition of NaOCl to H2O2. This generated the standard curve between the ESR intensity and ^1O2 concentration.
The deep-tissue radiodynamic process of IDPASu was tested by measuring ^1O2 generation at different tissue depths and compared with photosensitization (FIG. 11c).

[4] = In vivo limit of detection of subcutaneously injected IDPASu (radio afterglow); parameters: species or system mouse (BALB/c nude); conditions: subcutaneous injection, X-ray 5 mGy, LOD=3σ/k
Experimental: To test the LOD of IDPASu for in vivo RAI, 20 μl of the mixture solution of IDPASu at different concentrations (100.0, 50.0, 20.0, 10.0, 5.0, 1.0, 0.5 and 0 μM) and solubilizing agent (2-carboxyethyl)-o-cyclodextrin sodium salt (β-CD) at 100 μM was subcutaneously injected into the left flank of BALB/c nude mice (six weeks old). After 30 min, the left flank of mice were irradiated with X-rays at 5 mGy (250 μGy s^−1 for 20 s) as the other areas were protected by a 3.4-mm-thick lead shield with a notch under the X-ray irradiation. Radio afterglow signals were recorded. The detection limit was calculated using this equation: LOD=3σ/k, where a represents the s.d. of blank and k implies the slope of the radio afterglow intensities.

In the case of COC(=C1C2CC3CC(C2)CC1C3)c1cc(O)c(I)cc1/C=C/C1=CC(=C(C#N)C#N)c2ccccc2S1 [IDPASu], the viability at 24 h, 100 µM [1] is reported as 91%, the “cell viability under X-ray irradiation” value (U87 cells; 100 μM, X-ray 2 Gy, 100 mGy s^−1 for 20 s, no tissue) is reported as 1.4% and the “cell viability under X-ray irradiation at tissue depth of 15 cm” value (U87 cells; X-ray through 15 cm chicken breast tissue) is reported as 31.9%. The afterglow half-life [2] was 18.4 min, the afterglow life-time [2] was 25 h and the λem [2] was roughly 773 nm. The “decrease of ^1O2 concentration at tissue depth of 1 cm, X-ray” value ([3]; X-ray through 1 cm tissue) was ~ 30%, the “radiodynamic ^1O2 generation at tissue depth of 15 cm” value ([3]; X-ray through 15 cm tissue) was “still inducible” and the “^1O2 generation at tissue depth of 1 cm, light irradiation” value ([3]; light through 1 cm tissue) was “close to the background”. The “limit of detection (LOD), in vivo imaging” value [4] was 49 nM.
